Measured values from patent EP0178682A2, “1,3-Bis(1H-1,2,4-triazol-1-yl)-2-fluoro-2-(2,4-difluorophenyl)propane, antifungal composition containing it, and process for preparation of the compound and the composition” (SCHERING CORPORATION, priority 1984, dated 1986).
≈ marks a conversion by molar mass, not a printed value. Like-named read-outs stand apart in the source and are kept apart here.

Tests used:
a large number of fungi = assay: conventional antifungal screening test, in vitro, Sabourand broth medium; format: cell-based
six strains of Candida = assay: in vitro antifungal activity (MIC) in Eagles medium; format: cell-based; conditions: for MIC: six strains of Candida
Candida albicans = assay: mouse Candida albicans oral infection model; format: in vivo; conditions: compared to ketoconazole

Structure (SMILES) | in vitro activity against a large number of fungi (a large number of fungi) | in vitro activity against six strains of Candida compared to ketoconazole (six strains of Candida) | MIC (six strains of Candida; after 48 hours, read-out: mean Minimum Inhibitory Concentration (MIC)) | preventive dosage required for survival of 100% of the test animals (Candida albicans) | MIC (six strains of Candida; read-out: MIC)
Fc1ccc(C(F)(Cn2cncn2)Cn2cncn2)c(F)c1 [compound of this invention, 1,3-Bis(1H-1,2,4-triazol-1-yl)-2-(2,4-difluorophenyl)-2-fluoro-propane] | negligible in vitro activity | significantly lower in vitro activity | 4 µg/mL (≈ 13 µM) | lower than that required for ketoconazole | –
CC(=O)N1CCN(c2ccc(OCC3COC(Cn4ccnc4)(c4ccc(Cl)cc4Cl)O3)cc2)CC1 (stereo not drawn) [ketoconazole, reference compound] | negligible in vitro activity | – | – | – | < 0.031 µg/mL
